Assay results published in US20250230147A1, “LACTAMS AS CBL-B INHIBITORS” (Genentech, Inc., priority 2021, published 2025).

How the values were obtained:
Cbl-b = Cbl-b (Homo sapiens (Human), UniProt Q13191); assay: Cbl-b LCK Ub TR-FRET assay (Cbl-b Lck HTRF); type: biochemical
How it was run: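 TR-FRET (340 nm excitation, 615/665 nm emission) read after adding HA-ubiquitin–UBE2D2 thioester, anti-HA-D2 and streptavidin-Eu. Beforehand, compounds incubated 60 min with biotinylated Cbl-b, then 90 min with His-LCK and ATP (1 mM in 2× mix); IC50 from 10 concentrations, DMSO high and no-LCK low controls.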

c-Cbl = c-Cbl (Homo sapiens (Human), UniProt P22681); assay: C-Cbl LCK Ub TR-FRET assay (c-cbl Lck HTRF); type: biochemical; details: for (fold-selectivity): C-cbl Lck HTRF IC50 relative to Cbl-b Lck HTRF IC50
How it was run: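 After the ubiquitination reaction, detection mixture was added and plates incubated 20 min at room temperature before reading. IC50 values were calculated with wells lacking LCK as the low control and DMSO as the high control.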

Cbl-b, sequence (Q13191 40-426): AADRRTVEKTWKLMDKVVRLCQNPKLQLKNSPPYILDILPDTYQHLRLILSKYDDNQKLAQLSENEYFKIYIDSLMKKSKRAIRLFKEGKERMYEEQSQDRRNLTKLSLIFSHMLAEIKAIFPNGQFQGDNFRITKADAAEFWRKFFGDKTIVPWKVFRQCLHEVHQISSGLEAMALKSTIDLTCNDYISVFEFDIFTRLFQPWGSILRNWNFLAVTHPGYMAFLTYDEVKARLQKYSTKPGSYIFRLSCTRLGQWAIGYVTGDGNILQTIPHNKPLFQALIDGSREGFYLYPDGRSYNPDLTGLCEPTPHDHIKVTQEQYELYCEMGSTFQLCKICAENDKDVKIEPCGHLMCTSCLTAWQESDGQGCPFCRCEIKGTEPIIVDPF
c-Cbl, sequence (P22681 47-435): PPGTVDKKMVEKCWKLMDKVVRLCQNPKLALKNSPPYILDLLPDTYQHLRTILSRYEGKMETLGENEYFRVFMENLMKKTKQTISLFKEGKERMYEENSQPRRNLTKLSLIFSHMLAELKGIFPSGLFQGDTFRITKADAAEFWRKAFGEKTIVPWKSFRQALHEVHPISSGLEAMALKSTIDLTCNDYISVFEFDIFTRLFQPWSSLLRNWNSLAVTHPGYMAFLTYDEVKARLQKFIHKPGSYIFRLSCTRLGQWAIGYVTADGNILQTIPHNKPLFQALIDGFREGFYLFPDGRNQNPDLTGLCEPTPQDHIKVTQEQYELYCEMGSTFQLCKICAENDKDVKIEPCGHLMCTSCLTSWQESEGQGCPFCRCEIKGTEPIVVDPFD

SMILES | IC50 (Cbl-b) [µM] | IC50 (c-Cbl) [µM] | (fold-selectivity) (c-Cbl) [x]
CC(C)[C@H]1CNCCN1Cc1cc2c(c(C(F)(F)F)c1)CN(c1cccc(C3([C@H](F)c4nncn4C)COC3)c1)C2=O [Compound 97, 2-(3-(3-((S)-fluoro(4-methyl-4H-1,2,4-triazol-3-yl)methyl)oxetan-3-yl)phenyl)-6-(((S)-2-isopropylpiperazin-1-yl)methyl)-4-(trifluoromethyl)isoindolin-1-one] | 0.02 | 0.038 | 1.9
Cn1cnnc1C[C@]1(c2cccc(N3Cc4c(cccc4C(F)(F)F)C3=O)c2)C[C@@H](F)C1 [Compound 99, 2-(3-((1s,3r)-3-fluoro-1-((4-methyl-4H-1,2,4-triazol-3-yl)methyl)cyclobutyl)phenyl)-4-(trifluoromethyl)isoindolin-1-one] | 0.17 | 0.34 | 2.0
Cn1cnnc1C[C@]1(c2cccc(N3Cc4c(cccc4C(F)(F)F)C3=O)c2)C[C@H](F)C1 [Compound 100, 2-(3-((1r,3s)-3-fluoro-1-((4-methyl-4H-1,2,4-triazol-3-yl)methyl)cyclobutyl)phenyl)-4-(trifluoromethyl)isoindolin-1-one] | 0.19 | 0.38 | 1.9
Cn1cnnc1CC1(c2cccc(N3Cc4c(cc(CN5CC[C@@H](CCl)C5)cc4C(F)(F)F)C3=O)c2)COC1 [Compound 101, (R)-6-((3-(chloromethyl)pyrrolidin-1-yl)methyl)-2-(3-(3-((4-methyl-4H-1,2,4-triazol-3-yl)methyl)oxetan-3-yl)phenyl)-4-(trifluoromethyl)isoindolin-1-one] | 0.018 | 0.023 | 1.2
Cn1cnnc1CC1(c2cccc(N3Cc4c(cc(CN5CC[C@H](CCl)C5)cc4C(F)(F)F)C3=O)c2)COC1 [Compound 102, (S)-6-((3-(chloromethyl)pyrrolidin-1-yl)methyl)-2-(3-(3-((4-methyl-4H-1,2,4-triazol-3-yl)methyl)oxetan-3-yl)phenyl)-4-(trifluoromethyl)isoindolin-1-one] | 0.018 | 0.025 | 1.4
Cn1cnnc1[C@H](F)C1(c2cccc(N3Cc4c(cc(CN5CC(C)(CCl)C5)cc4C(F)(F)F)C3=O)c2)COC1 [Compound 103, (R)-6-((3-(chloromethyl)-3-methylazetidin-1-yl)methyl)-2-(3-(3-(fluoro(4-methyl-4H-1,2,4-triazol-3-yl)methyl)oxetan-3-yl)phenyl)-4-(trifluoromethyl)isoindolin-1-one] | 0.015 | 0.022 | 1.5
Cn1cnnc1CC1(c2cccc(N3Cc4c(cc(CN5Cc6c[nH]nc6C5)cc4C(F)(F)F)C3=O)c2)CC(F)(F)C1 [Compound 105, 2-(3-(3,3-difluoro-1-((4-methyl-4H-1,2,4-triazol-3-yl)methyl)cyclobutyl)phenyl)-6-((2,6-dihydropyrrolo[3,4-c]pyrazol-5(4H)-yl)methyl)-4-(trifluoromethyl)isoindolin-1-one] | 0.026 | 0.025 | 0.93
Cn1cnnc1CC1(c2cccc(N3Cc4c(cc(CN5CCC6(CC6)C5)cc4C(F)(F)F)C3=O)c2)CC(F)(F)C1 [Compound 106, 6((5-azaspiro[2.4]heptan-5-yl)methyl)-2-(3-(3,3-difluoro-1-((4-methyl-4H-1,2,4-triazol-3-yl)methyl)cyclobutyl)phenyl)-4-(trifluoromethyl)isoindolin-1-one] | 0.018 | 0.015 | 0.81
Cn1cnnc1CC1(c2cccc(N3Cc4c(cc(CN5CC(C)(F)C5)cc4C(F)(F)F)C3=O)c2)CC(F)(F)C1 [Compound 107, 2-(3-(3,3-difluoro-1-((4-methyl-4H-1,2,4-triazol-3-yl)methyl)cyclobutyl)phenyl)-6-((3-fluoro-3-methylazetidin-1-yl)methyl)-4-(trifluoromethyl)isoindolin-1-one] | 0.018 | 0.019 | 1.0
C[C@H]1CN(Cc2cc3c(c(C(F)(F)F)c2)CN(c2cccc(C4([C@@H](F)c5nncn5C)COC4)c2)C3=O)CCCO1 [Compound 118, 2-(3-(3-((R)-fluoro(4-methyl-4H-1,2,4-triazol-3-yl)methyl)oxetan-3-yl)phenyl)-6-(((S)-2-methyl-1,4-oxazepan-4-yl)methyl)-4-(trifluoromethyl)isoindolin-1-one] | 0.007 | 0.008 | 1.1
C[C@@H]1CN(Cc2cc3c(c(C(F)(F)F)c2)CN(c2cccc(C4([C@@H](F)c5nncn5C)COC4)c2)C3=O)CCCO1 [Compound 119, 2-(3-(3((R)-fluoro(4-methyl-4H-1,2,4-triazol-3-yl)methyl)oxetan-3-yl)phenyl)-6-(((R)-2-methyl-1,4-oxazepan-4-yl)methyl)-4-(trifluoromethyl)isoindolin-1-one] | 0.048 | 0.052 | 1.1
CC1CN(Cc2cc3c(c(C(F)(F)F)c2)CN(c2cccc(C4([C@H](F)c5nncn5C)COC4)c2)C3=O)CCCO1 (stereo partly drawn) [Compound 120, 2-(3-(3-((S)-fluoro(4-methyl-4H-1,2,4-triazol-3-yl)methyl)oxetan-3-yl)phenyl)-6-((2-methyl-1,4-oxazepan-4-yl)methyl)-4-(trifluoromethyl)isoindolin-1-one] | 0.036 | 0.044 | 1.2
Cn1cnnc1[C@@H](F)C1(c2cccc(N3Cc4c(cc(CN5CC(C)(CO)C5)cc4C(F)(F)F)C3=O)c2)CC1 [Compound 125, (S)-2-(3-(1-(fluoro(4-methyl-4H-1,2,4-triazol-3-yl)methyl)cyclopropyl)phenyl)-6((3-(hydroxymethyl)-3-methylazetidin-1-yl)methyl)-4-(trifluoromethyl)isoindolin-1-one] | 0.14 | 0.24 | 1.7
Cn1cnnc1[C@H](F)C1(c2cccc(N3Cc4c(cc(CN5CC(C)(CO)C5)cc4C(F)(F)F)C3=O)c2)CC1 [Compound 126, (R)-2-(3-(1-(fluoro(4-methyl-4H-1,2,4-triazol-3-yl)methyl)cyclopropyl)phenyl)-6((3-(hydroxymethyl)-3-methylazetidin-1-yl)methyl)-4-(trifluoromethyl)isoindolin-1-one] | 0.064 | 0.093 | 1.5

Now from value to compound:

IC50 (Cbl-b) [µM] | IC50 (c-Cbl) [µM] | (fold-selectivity) (c-Cbl) [x] | SMILES
0.048 | 0.089 | 1.9 | Cn1cnnc1[C@@H](F)C1(c2cccc(N3Cc4c(cc(CN5CC(C)(CCl)C5)cc4C(F)(F)F)C3=O)c2)COC1 [Compound 104, (S)-6-((3-(chloromethyl)-3-methylazetidin-1-yl)methyl)-2-(3-(3-(fluoro(4-methyl-4H-1,2,4-triazol-3-yl)methyl)oxetan-3-yl)phenyl)-4-(trifluoromethyl)isoindolin-1-one]
0.083 | 0.16 | 2.0 | C[C@@H](c1cc2c(c(C(F)(F)F)c1)CN(c1cccc(C3([C@@H](F)c4nncn4C)COC3)c1)C2=O)N1CC(C)(F)C1 [Compound 108, 2-(3-(3((R)-fluoro(4-methyl-4H-1,2,4-triazol-3-yl)methyl)oxetan-3-yl)phenyl)-6-((S)-1-(3-fluoro-3-methylazetidin-1-yl)ethyl)-4-(trifluoromethyl)isoindolin-1-one]
0.044 | 0.085 | 1.9 | C[C@H](c1cc2c(c(C(F)(F)F)c1)CN(c1cccc(C3([C@@H](F)c4nncn4C)COC3)c1)C2=O)N1CC(C)(F)C1 [Compound 109, 2-(3-(3((R)-fluoro(4-methyl-4H-1,2,4-triazol-3-yl)methyl)oxetan-3-yl)phenyl)-6-((R)-1-(3-fluoro-3-methylazetidin-1-yl)ethyl)-4-(trifluoromethyl)isoindolin-1-one]
0.32 | 0.65 | 2.0 | C[C@@H](c1cc2c(c(C(F)(F)F)c1)CN(c1cccc(C3([C@H](F)c4nncn4C)COC3)c1)C2=O)N1CC(C)(F)C1 [Compound 110, 2-(3-(3-((S)-fluoro(4-methyl-4H-1,2,4-triazol-3-yl)methyl)oxetan-3-yl)phenyl)-6-((S)-1-(3-fluoro-3-methylazetidin-1-yl)ethyl)-4-(trifluoromethyl)isoindolin-1-one]
0.19 | 0.34 | 1.8 | C[C@H](c1cc2c(c(C(F)(F)F)c1)CN(c1cccc(C3([C@H](F)c4nncn4C)COC3)c1)C2=O)N1CC(C)(F)C1 [Compound 111, 2-(3-(3-((S)-fluoro(4-methyl-4H-1,2,4-triazol-3-yl)methyl)oxetan-3-yl)phenyl)-6-((R)-1-(3-fluoro-3-methylazetidin-1-yl)ethyl)-4-(trifluoromethyl)isoindolin-1-one]
0.31 | 0.33 | 1.1 | Cn1cnnc1[C@H](F)C1(c2cccc(N3Cc4c(cc(Oc5cn[nH]c5)cc4C(F)(F)F)C3=O)c2)COC1 [Compound 116, (R)-6-((1H-pyrazol-4-yl)oxy)-2-(3-(3-(fluoro(4-methyl-4H-1,2,4-triazol-3-yl)methyl)oxetan-3-yl)phenyl)-4-(trifluoromethyl)isoindolin-1-one]
0.54 | 0.75 | 1.4 | Cn1cnnc1[C@@H](F)C1(c2cccc(N3Cc4c(cc(Oc5cn[nH]c5)cc4C(F)(F)F)C3=O)c2)COC1 [Compound 117, (S)-6-((1H-pyrazol-4-yl)oxy)-2-(3-(3-(fluoro(4-methyl-4H-1,2,4-triazol-3-yl)methyl)oxetan-3-yl)phenyl)-4-(trifluoromethyl)isoindolin-1-one]
